pEC50: −log10 of the molar value. Values joined by “and” are separate entries in the source; they are usually repeats but may differ in a detail not shown here. Equal entries are not always repeated. Where two headings read alike, the source gives them in different places. Blank lines part the entries; values can stand above or below the molecule they belong to.
Tests used:
[1] = system: J774 murine macrophage cell line
[2] = Osmolality by vapor pressure osmometer, osmotic coefficient; format: physicochemical
[3] = Yoshizawa-Fujita 2007; cited from earlier work
mouse splenocytes = settings: 24 h; for concentration with cytotoxicity (viability diminishes): splenocytes, medium without added buffer
[4] = system: J774 murine macrophage cell line; assay: cells; settings: Mus musculus, J774, 48 h
[5] = cited from earlier work
[6] = 350 mg/ml vs 1 mg/ml, aqueous solvent; cited from earlier work
[7] = 100 mM solutions in deionized water
[8] = read-out: Log EC50, μM (Dose Response Model) (converted)

- anion effect ratio (AR) [1]: 113
- shape of dose response [1]: hormetic response
- osmotic coefficient (φ) ([2]; 100 mM in water, 1 indicates 100% dissociation): 0.3
- Osmotic Coef., φ in H2O [2, 7]: 0.31
Molecule: CCCCC(CC)COP(=O)(O)OCC(CC)CCCC.CN(C)CCO (stereo not shown) [CBEH, Choline bis(2,ethyl hexyl) phosphate]
- Log EC50, μM (Dose Response Model) ([1]; J774, 48 h, value is the logarithm of EC50, error of last digit in parentheses, equation 1): 2.47 (3) μM
- Log EC50, μM (Logistic Model) ([1]; J774, 48 h, value is the logarithm of EC50, modified (hormesis) model, equation 2, error of last digit in parentheses): 2.43 (3) μM
- pEC50 ([1]; J774, 48 h exposure): 3.52

Molecule: C[N+](C)(C)CCO.O=P([O-])(O)O [CDHP, choline dihydrogen phosphate]
- cytotoxic effect toward HT-2 lymphocytes (HT-2 cells): no immediate cytotoxic effect
- concentration range not cytotoxic (HT-2 cells; mouse): 0 to 3e+07 nM
- shape of dose response [1]: hormetic response
- anion effect ratio (AR) ([1]; mouse, pH 7.53): 1.7
- concentration range with no cytotoxic activity detected (B16-F10 melanoma cells; buffered medium ([…] (w/v) sodium bicarbonate), 24 h): 0 to 8e+07 nM
- concentration not cytotoxic (B16-F10 melanoma cells; final culture medium concentration): 1000 to 30000 µM
- cytotoxic activity (B16-F10 melanoma cells; up to 80 mM C-DHP, DMEM F12 complete medium, 24 h, not buffered): doesn't demonstrate any significant cytotoxic activity
- thermal stability by thermal gravimetric analysis [3]: up to 200 °C
- concentration range with no cytotoxic activity detected (mouse splenocytes; buffered medium ([…] (w/v) sodium bicarbonate)): 0 to 8e+07 nM
- concentration with cytotoxicity (viability diminishes) (mouse splenocytes): > 35000 µM and > 40000 µM
- concentration with cytotoxicity (viability diminishes) (mouse splenocytes; listed as Choline-DHP): > 30000 µM
- pEC50 [4]: 1.70
- EC50 [4, 8]: 20400 µM
- EC50 ([4]; read-out: Log EC50, μM (Logistic Model) (converted)): 19100 µM

Molecule: C[N+](C)(C)CCO.[Cl-] [Choline chloride, reference compound]
- pEC50 [1]: 1.47
- Osmotic Coef., φ in H2O [2]: 0.86
- pEC50 [4]: 1.47
- EC50 [4, 8]: 33900 µM

Molecule: [Cl-].[Na+] [Sodium chloride, reference compound]
- pEC50 [1]: 1.20
- Log EC50, μM (Dose Response Model) [1]: 4.8 (1) μM
- Osmotic Coef., φ in H2O [2]: 0.91

- Osmotic Coef., φ in H2O [2, 7]: 1.01
Molecule: OC[C@H]1O[C@H](O[C@H]2O[C@H](CO)[C@@H](O)[C@H](O)[C@H]2O)[C@H](O)[C@@H](O)[C@@H]1O [Trehalose, reference compound]
- pEC50 [4]: < 1.00

Molecule: Choline dibutyl phosphate [CDBP]
- pEC50 [1]: 2.04
- Log EC50, μM (Dose Response Model) [1]: 3.96 (3) μM
- anion effect ratio (AR) [1]: 3.7
- Osmotic Coef., φ in H2O [2]: 0.90
- osmotic coefficient (φ) [2]: 0.9

Molecule: cyt C: cytochrome c, protein of earlier literature studies in 80% w/w CDHP
- thermal transition midpoint temperature before shift ([5]; Fujita 2006, 2007): 80 C.°
- concentration dissolved ([5]; in 80% w/w CDHP (Fujita 2005, 2006)): 37000 µg/mL
- thermal transition midpoint temperature after shift ([5]; stabilized in CDHP, Fujita 2006, 2007): 120 C.°

Molecule: fibrinogen
- increase of transition temperature at the higher concentration [6]: 3 °C

Molecule: hemoglobin
- increase of transition temperature at the higher concentration [6]: 8 °C
